Source: EP4596537A1, “NOVEL FLUORENE DERIVATIVE COMPOUND AND USE THEREOF” (JD Bioscience Inc., priority 2022, dated 2024)

Tested on: PDHE1α S293
Experiment: In vitro PDH S293 phosphorylation inhibition (Western blot) in HEK293 cells
Format: cell-based, human
Conditions: 5 hours, at 1 µM
Method: HEK293 cells, which are human embryonic kidney cells, were seeded at a density of 2 × 10^6 in a 60 mm dish, and cultured for 24 hours. After replacing the medium with a medium comprising 0.5% FBS, the compounds prepared according to Examples 1 to 54 were treated at various concentrations. 5 hours later, the cells were scraped off and collected into a 15 mL conical tube and centrifuged at 1500 rpm for 10 minutes. The supernatant was discarded, the resultant was washed with 1× PBS, and transferred to a 1.5 mL e-tube, followed by centrifugation at 10,000 rpm for 5 minutes. The supernatant was discarded again, a lysis buffer was added, and the cells were lysed on ice for 30 minutes. The cells were vortexed every 10 minutes to completely lyse, and centrifuged again at 10,000 rpm for 15 minutes at 4°C, and the supernatant was collected. The protein in the supernatant was quantified using BCA technique, and the sample buffer was added to 20 µg of protein and allowed to react at 70°C for 5 minutes. The expression of PDHE1α S232, S293, S300, and total PDHE1α proteins was detected by Western blot, and the resulting PDH S293 phosphorylation inhibition is shown in Table 6. […]

Compound | PDH S293 phosphorylation inhibition
N'-(3-chloro-5-(trifluoromethyl)pyridin-2-yl)-2-(4-(2-fluoro-9-hydroxy-9-(trifluoromethyl)-9H-fluoren-4-yl)-1H-pyrazol-1-yl)propanehydrazide [Example 32] | ++ (50% or more of PHDE1α S293 expression inhibition rate at 1 µM)
N'-(3-chloro-5-(trifluoromethyl)pyridin-2-yl)-2-(4-(9-hydroxy-2-methoxy-9-(trifluoromethyl)-9H-fluoren-4-yl)-1H-pyrazol-1-yl)propanehydrazide [Example 33] | ++ (50% or more of PHDE1α S293 expression inhibition rate at 1 µM)

Same assay, conditions: Homo sapiens, 5 hours

Compound | inhibition at 1 µM [%]
COc1cc(-c2cnn(C(C)C(=O)NNc3ccc(F)cc3)c2)c2c(c1)C(O)(C(F)(F)F)c1ccccc1-2 (stereo not shown) [Example 2, N'-(4-fluorophenyl)-2-(4-(9-hydroxy-2-methoxy-9-(trifluoromethyl)-9H-fluoren-4-yl)-1H-pyrazol-1-yl)propanehydrazide] | ≥ 50
CC(C(=O)NNc1ccccc1Cl)n1cc(-c2cc(F)cc3c2-c2ccccc2C3(O)C(F)(F)F)cn1 (stereo not shown) [Example 6, N'-(2-chlorophenyl)-2-(4-(2-fluoro-9-hydroxy-9-(trifluoromethyl)-9H-fluoren-4-yl)-1H-pyrazol-1-yl)propanehydrazide] | ≥ 50
CC(C(=O)NNc1ccc(Cl)cc1)n1cc(-c2cc(F)cc3c2-c2ccccc2C3(O)C(F)(F)F)cn1 (stereo not shown) [Example 7, N'-(4-chlorophenyl)-2-(4-(2-fluoro-9-hydroxy-9-(trifluoromethyl)-9H-fluoren-4-yl)-1H-pyrazol-1-yl)propanehydrazide] | ≥ 50
COc1cc(-c2cnn(C(C)C(=O)NNc3ccc(S(C)(=O)=O)cc3)c2)c2c(c1)C(O)(C(F)(F)F)c1ccccc1-2 (stereo not shown) [Example 23, 2-(4-(9-hydroxy-2-methoxy-9-(trifluoromethyl)-9H-fluoren-4-yl)-1H-pyrazol-1-yl)-N'-(4-(methylsulfonyl)phenyl)propanehydrazide] | ≥ 50
COc1cc(-c2cnn(C(C)C(=O)NNc3cnccn3)c2)c2c(c1)C(O)(C(F)(F)F)c1ccccc1-2 (stereo not shown) [Example 25, 2-(4-(9-hydroxy-2-methoxy-9-(trifluoromethyl)-9H-fluoren-4-yl)-1H-pyrazol-1-yl)-N'-(pyrazin-2-yl)propanehydrazide] | ≥ 50
CC(C(=O)NN1CCCCC1)n1cc(-c2cc(F)cc3c2-c2ccccc2C3(O)C(F)(F)F)cn1 (stereo not shown) [Example 53, 2-(4-(2-fluoro-9-hydroxy-9-(trifluoromethyl)-9H-fluoren-4-yl)-1H-pyrazol-1-yl)-N-(piperidin-1-yl)propanamide] | ≥ 50
CC(C(=O)NNc1ncccn1)n1cc(-c2cc(F)cc3c2-c2ccccc2C3(O)C(F)(F)F)cn1 (stereo not shown) [Example 28, 2-(4-(2-fluoro-9-hydroxy-9-(trifluoromethyl)-9H-fluoren-4-yl)-1H-pyrazol-1-yl)-N'-(pyrimidin-2-yl)propanehydrazide] | ≥ 50
O=C(Cn1cc(-c2cc(F)cc3c2-c2ccccc2C3(O)C(F)(F)F)cn1)NNc1ccccn1 (stereo not shown) [Example 18, 2-(4-(2-fluoro-9-hydroxy-9-(trifluoromethyl)-9H-fluoren-4-yl)-1H-pyrazol-1-yl)-N'-(pyridin-2-yl)acetohydrazide] | ≥ 80
CC(C(=O)NNc1cc(=O)n(C)c2ccccc12)n1cc(-c2cc(F)cc3c2-c2ccccc2C3(O)C(F)(F)F)cn1 (stereo not shown) [Example 40, 2-(4-(2-fluoro-9-hydroxy-9-(trifluoromethyl)-9H-fluoren-4-yl)-1H-pyrazol-1-yl)-N'-(1-methyl-2-oxo-1,2-dihydroquinolin-4-yl)propanehydrazide] | ≥ 50
CC(C(=O)NNc1cccnc1)n1cc(-c2cc(F)cc3c2-c2ccccc2C3(O)C(F)(F)F)cn1 (stereo not shown) [Example 30, 2-(4-(2-fluoro-9-hydroxy-9-(trifluoromethyl)-9H-fluoren-4-yl)-1H-pyrazol-1-yl)-N'-(pyridin-3-yl)propanehydrazide] | ≥ 50
O=C(Cn1cc(-c2cc(F)cc3c2-c2ccccc2C3(O)C(F)(F)F)cn1)NNc1ccc(C(=O)O)cn1 (stereo not shown) [Example 20, 6-(2-(2-(4-(2-fluoro-9-hydroxy-9-(trifluoromethyl)-9H-fluoren-4-yl)-1H-pyrazol-1-yl)acetyl)hydrazinyl)nicotinic acid] | ≥ 50
CC(C(=O)NN1CCCCCC1)n1cc(-c2cc(F)cc3c2-c2ccccc2C3(O)C(F)(F)F)cn1 (stereo not shown) [Example 54, N-(azepan-1-yl)-2-(4-(2-fluoro-9-hydroxy-9-(trifluoromethyl)-9H-fluoren-4-yl)-1H-pyrazol-1-yl)propanamide] | ≥ 50
COc1cc(-c2cnn(C(C)C(=O)NNc3ccccc3Cl)c2)c2c(c1)C(O)(C(F)(F)F)c1ccccc1-2 (stereo not shown) [Example 12, N'-(2-chlorophenyl)-2-(4-(9-hydroxy-2-methoxy-9-(trifluoromethyl)-9H-fluoren-4-yl)-1H-pyrazol-1-yl)propanehydrazide] | ≥ 50
CC(C(=O)NNc1ccc(C(=O)O)cn1)n1cc(-c2cc(F)cc3c2-c2ccccc2C3(O)C(F)(F)F)cn1 (stereo not shown) [Example 14, 6-(2-(2-(4-(2-fluoro-9-hydroxy-9-(trifluoromethyl)-9H-fluoren-4-yl)-1H-pyrazol-1-yl)propanoyl)hydrazinyl)nicotinic acid] | ≥ 50
CC(C(=O)NNc1ccc(S(C)(=O)=O)cc1F)n1cc(-c2cc(F)cc3c2-c2ccccc2C3(O)C(F)(F)F)cn1 (stereo not shown) [Example 3, N'-(2-fluoro-4-(methylsulfonyl)phenyl)-2-(4-(2-fluoro-9-hydroxy-9-(trifluoromethyl)-9H-fluoren-4-yl)-1H-pyrazol-1-yl)propanehydrazide] | ≥ 50
COc1cc(-c2cnn(C(C)C(=O)NNc3cccnc3)c2)c2c(c1)C(O)(C(F)(F)F)c1ccccc1-2 (stereo not shown) [Example 31, 2-(4-(9-hydroxy-2-methoxy-9-(trifluoromethyl)-9H-fluoren-4-yl)-1H-pyrazol-1-yl)-N'-(pyridin-3-yl)propanehydrazide] | ≥ 50
CC(C(=O)NNc1ccc2nccn2n1)n1cc(-c2cc(F)cc3c2-c2ccccc2C3(O)C(F)(F)F)cn1 (stereo not shown) [Example 41, 2-(4-(2-fluoro-9-hydroxy-9-(trifluoromethyl)-9H-fluoren-4-yl)-1H-pyrazol-1-yl)-N'-(imidazo[1,2-b]pyridazin-6-yl)propanehydrazide] | ≥ 50
CC(C(=O)NNc1ccc(C(F)(F)F)cn1)n1cc(-c2cc(F)cc3c2-c2ccccc2C3(O)C(F)(F)F)cn1 (stereo not shown) [Example 26, 2-(4-(2-fluoro-9-hydroxy-9-(trifluoromethyl)-9H-fluoren-4-yl)-1H-pyrazol-1-yl)-N'-(5-(trifluoromethyl)pyridin-2-yl)propanehydrazide] | ≥ 50
COc1cc(-c2cnn(C(C)C(=O)NNc3ccc(C(=O)O)cn3)c2)c2c(c1)C(O)(C(F)(F)F)c1ccccc1-2 (stereo not shown) [Example 16, 6-(2-(2-(4-(9-hydroxy-2-methoxy-9-(trifluoromethyl)-9H-fluoren-4-yl)-1H-pyrazol-1-yl)propanoyl)hydrazinyl)nicotinic acid] | ≥ 50
COc1cc(-c2cnn(C(C)C(=O)NNc3ccc(S(C)(=O)=O)cc3F)c2)c2c(c1)C(O)(C(F)(F)F)c1ccccc1-2 (stereo not shown) [Example 9, N'-(2-fluoro-4-(methylsulfonyl)phenyl)-2-(4-(9-hydroxy-2-methoxy-9-(trifluoromethyl)-9H-fluoren-4-yl)-1H-pyrazol-1-yl)propanehydrazide] | ≥ 80
C[C@@H](C(=O)NNc1ccc(F)cc1)n1cc(-c2cc(F)cc3c2-c2ccccc2[C@]3(O)C(F)(F)F)cn1 [Example 50, (S)-2-(4-((R)-2-fluoro-9-hydroxy-9-(trifluoromethyl)-9H-fluoren-4-yl)-1H-pyrazol-1-yl)-N'-(4-fluorophenyl)propanehydrazide] | ≥ 50
CC(C)C(C(=O)NNc1ccc(F)cc1)n1cc(-c2cc(F)cc3c2-c2ccccc2C3(O)C(F)(F)F)cn1 (stereo not shown) [Example 44, 2-(4-(2-fluoro-9-hydroxy-9-(trifluoromethyl)-9H-fluoren-4-yl)-1H-pyrazol-1-yl)-N'-(4-fluorophenyl)-3-methylbutanehydrazide] | ≥ 50
CC(C(=O)NNc1ncnc2ccccc12)n1cc(-c2cc(F)cc3c2-c2ccccc2C3(O)C(F)(F)F)cn1 (stereo not shown) [Example 35, 2-(4-(2-fluoro-9-hydroxy-9-(trifluoromethyl)-9H-fluoren-4-yl)-1H-pyrazol-1-yl)-N'-(quinazolin-4-yl)propanehydrazide] | ≥ 50
COc1cc(-c2cnn(C(C)C(=O)NNc3ccccn3)c2)c2c(c1)C(O)(C(F)(F)F)c1ccccc1-2 (stereo not shown) [Example 17, 2-(4-(9-hydroxy-2-methoxy-9-(trifluoromethyl)-9H-fluoren-4-yl)-1H-pyrazol-1-yl)-N'-(pyridin-2-yl)propanehydrazide] | ≥ 50
C[C@@H](C(=O)NNc1ccc(F)cc1)n1cc(-c2cc(F)cc3c2-c2ccccc2[C@@]3(O)C(F)(F)F)cn1 [Example 48, (S)-2-(4-((S)-2-fluoro-9-hydroxy-9-(trifluoromethyl)-9H-fluoren-4-yl)-1H-pyrazol-1-yl)-N'-(4-fluorophenyl)propanehydrazide] | ≥ 50
CC(C)(C(=O)NNc1ccc(F)cc1)n1cc(-c2cc(F)cc3c2-c2ccccc2C3(O)C(F)(F)F)cn1 (stereo not shown) [Example 47, 2-(4-(2-fluoro-9-hydroxy-9-(trifluoromethyl)-9H-fluoren-4-yl)-1H-pyrazol-1-yl)-N'-(4-fluorophenyl)-2-methylpropanehydrazide] | ≥ 50
